In patent publication US9314464B2, “Compounds and compositions as protein kinase inhibitors” (Novartis AG, priority 2009, dated 2016) one finds IC50 data, which are given here for eleven compounds.

B-Raf V600E, sequence (P15056 whole entry V600E): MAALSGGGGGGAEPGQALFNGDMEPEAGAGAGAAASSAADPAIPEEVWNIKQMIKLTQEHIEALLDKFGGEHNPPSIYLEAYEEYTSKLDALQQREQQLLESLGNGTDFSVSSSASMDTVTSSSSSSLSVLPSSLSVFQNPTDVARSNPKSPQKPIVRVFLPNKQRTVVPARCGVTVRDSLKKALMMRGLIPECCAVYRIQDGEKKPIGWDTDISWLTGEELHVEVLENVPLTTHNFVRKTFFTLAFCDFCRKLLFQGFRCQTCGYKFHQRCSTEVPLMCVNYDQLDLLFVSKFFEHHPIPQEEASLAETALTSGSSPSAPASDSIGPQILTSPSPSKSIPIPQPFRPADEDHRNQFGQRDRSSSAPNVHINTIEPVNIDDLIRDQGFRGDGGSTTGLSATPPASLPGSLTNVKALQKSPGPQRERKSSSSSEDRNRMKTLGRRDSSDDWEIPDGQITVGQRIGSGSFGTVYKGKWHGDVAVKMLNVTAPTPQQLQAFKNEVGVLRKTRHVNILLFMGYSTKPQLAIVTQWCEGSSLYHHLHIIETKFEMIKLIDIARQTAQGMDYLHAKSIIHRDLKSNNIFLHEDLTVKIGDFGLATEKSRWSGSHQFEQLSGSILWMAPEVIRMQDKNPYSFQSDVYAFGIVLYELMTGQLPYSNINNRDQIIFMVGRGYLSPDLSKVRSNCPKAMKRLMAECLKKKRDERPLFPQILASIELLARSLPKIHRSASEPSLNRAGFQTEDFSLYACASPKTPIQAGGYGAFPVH

The test addresses B-Raf V600E (Homo sapiens (Human), UniProt P15056, V600E). As to the kind of experiment: B-Raf V600E/Mek Amplified Luminescence Proximity Homogeneous Assay (B-Raf V600E biochemical). Particulars: read-out: BRAF V600E biochemical IC50. The method, then:
The plate was incubated for 60 minutes at room temperature.
The B-Raf kinase activity reaction was started by the addition of 10 μl per well of 2×ATP (10 μM) diluted in assay buffer. After 3 hours, the reactions were stopped with the addition of 10 μl of stop reagent (60 mM EDTA, 0.01% Tween20). Phosphorylated product was measured using a rabbit anti-p-MEK (Cell Signaling, #9121) antibody and the Alpha Screen IgG (ProteinA) detection Kit (PerkinElmer #6760617R), by the addition of 30 μl to the well of a mixture of the antibody (1:2000 dilution) and detection beads (1:1000 dilution of both beads) in bead buffer (50 mM Tris, pH 7.5, 0.01% Tween20). The additions were carried out under dark conditions to protect the detection beads from light. A lid was placed on top of the plate and the plate was incubated for 1 hour at room temperature. The luminescence was read on a PerkinElmer Envision instrument. The concentration of each compound for 50% inhibition (IC50) was calculated by non-linear regression using XL Fit data analysis software.
For orientation: IC50 means the midpoint of a concentration-inhibition curve. Turning to `COC(=O)N[C@@H](C)CNc1nccc(-c2cn(C(C)C)nc2-c2ccc(F)c(NS(C)(=O)=O)c2F)n1` [Compound 19, methyl N-[(2S)-1-({4-[3-(2,4-difluoro-3-methanesulfonamidophenyl)-1-(propan-2-yl)-1H-pyrazol-4-yl]pyrimidin-2-yl}amino)propan-2-yl]carbamate], the half-maximal inhibitory concentration (IC50) was determined as 6.1 nM.

`CCS(=O)(=O)Nc1c(F)ccc(-c2nn(C(C)C)cc2-c2ccnc(NC[C@H](C)NC(=O)OC)n2)c1F` [Compound 26, methyl N-[(2S)-1-({4-[3-(3-ethanesulfonamido-2,4-difluorophenyl)-1-(propan-2-yl)-1H-pyrazol-4-yl]pyrimidin-2-yl}amino)propan-2-yl]carbamate]: the IC50 amounted to 1.7 nM.

On to `CC(C)n1cc(-c2ccnc(N)n2)c(-c2cc(Cl)cc(NS(C)(=O)=O)c2F)n1` [Compound 30, N-{3-[4-(2-aminopyrimidin-4-yl)-1-(propan-2-yl)-1H-pyrazol-3-yl]-5-chloro-2-fluorophenyl}methanesulfonamide], for which the IC50 was 4.3 nM.

With `COC(=O)N[C@@H](C)CNc1nccc(-c2cn(C(C)C)nc2-c2cc(F)cc(NS(C)(=O)=O)c2F)n1` [Compound 10, methyl N-[(2S)-1-({4-[3-(2,5-difluoro-3-methanesulfonamidophenyl)-1-(propan-2-yl)-1H-pyrazol-4-yl]pyrimidin-2-yl}amino)propan-2-yl]carbamate], the IC50 is 0.6 nM.

As for `COC(=O)N[C@@H](C)CNc1nccc(-c2cn(C(C)C)nc2-c2cc(Cl)cc(NS(C)(=O)=O)c2)n1` [Compound 2, methyl N-[(2S)-1-({4-[3-(3-chloro-5-methanesulfonamidophenyl)-1-(propan-2-yl)-1H-pyrazol-4-yl]pyrimidin-2-yl}amino)propan-2-yl]carbamate], the 50% inhibitory concentration (IC50) came to 0.8 nM.

In the case of `COC(=O)N[C@@H](C)CNc1nccc(-c2cn(C(C)C)nc2-c2ccnc(NS(C)(=O)=O)c2F)n1` [Compound 16, methyl N-[(2S)-1-({4-[3-(3-fluoro-2-methanesulfonamidopyridin-4-yl)-1-(propan-2-yl)-1H-pyrazol-4-yl]pyrimidin-2-yl}amino)propan-2-yl]carbamate], the IC50 stood at 24 nM.

`CC(C)n1cc(-c2ccnc(NCCN(C)C)n2)c(-c2cc(Cl)cc(NS(C)(=O)=O)c2F)n1` [Compound 28, N-{5-chloro-3-[4-(2-{[2-(dimethylamino)ethyl]amino}pyrimidin-4-yl)-1-(propan-2-yl)-1H-pyrazol-3-yl]-2-fluorophenyl}methanesulfonamide]: the half-maximal inhibitory concentration (IC50) turned out to be 90 nM.

Regarding `COC(=O)NC[C@H](C)Nc1nccc(-c2cn(C(C)C)nc2-c2cc(Cl)cc(NS(C)(=O)=O)c2F)n1` [Compound 32, Methyl N-[(2S)-2-({4-[3-(5-chloro-2-fluoro-3-methanesulfonamidophenyl)-1-(propan-2-yl)-1H-pyrazol-4-yl]pyrimidin-2-yl}amino)propyl]carbamate], the concentration for half-maximal inhibition (IC50) stood at 2.9 nM.

For the compound `COC(=O)N[C@@H](C)CNc1nccc(-c2cn(C(C)C)nc2-c2cc(F)cc(NS(C)(=O)=O)c2Cl)n1` [Compound 15, Methyl N-[(2S)-1-({4-[3-(2-chloro-5-fluoro-3-methanesulfonamidophenyl)-1-(propan-2-yl)-1H-pyrazol-4-yl]pyrimidin-2-yl}amino)propan-2-yl]carbamate], the IC50 is 1.1 nM.

Consider `CCCS(=O)(=O)Nc1c(F)ccc(-c2nn(C(C)C)cc2-c2ccnc(NC[C@H](C)NC(=O)OC)n2)c1F` [Compound 34, methyl N-[(2S)-1-[(4-{3-[2,4-difluoro-3-(propane-1-sulfonamido)phenyl]-1-(propan-2-yl)-1H-pyrazol-4-yl}pyrimidin-2-yl)amino]propan-2-yl]carbamate], for which the IC50 was 2.7 nM.

As for `COC(=O)N[C@@H](C)CNc1nccc(-c2c[nH]nc2-c2cc(Cl)cc(NS(C)(=O)=O)c2F)n1` [Compound 31, Methyl N-[(2S)-1-({4-[3-(5-chloro-2-fluoro-3-methanesulfonamidophenyl)-1H-pyrazol-4-yl]pyrimidin-2-yl}amino)propan-2-yl]carbamate], the IC50 was found to be 0.8 nM.
